Consider 17 compounds from patent US10137210B2, “Thioflavin derivatives for use in antemortem diagnosis of Alzheimer's disease and in vivo imaging and prevention of amyloid deposition” (UNIVERSITY OF PITTSBURGH—OF THE COMMONWEALTH SYSTEM OF …, priority 2000, dated 2018).

Data set [1] is described as follows: In vivo brain uptake and retention in mice. Set-up: species or system mouse. Conditions: for Mouse Brain Uptake @ 2 min / Mouse Brain Uptake @ 30 min: 11C-labeled compound; for 2 min (% ID/g): brain uptake at 2 min; for 2 min (% ID/g) / 30 min (% ID/g): Table 1 lower part; for 30 min (% ID/g): brain uptake at 30 min. The text has this:
In Table 1 below are five different ^11C-labeled BTA derivatives where their in vitro binding properties, log P values, and in vivo brain uptake and retention properties in mice have been determined.

The nature of data set [2]: Partitioning between octanol and phosphate-buffered saline (logP).
The next data set deals with Aβ(1-40) fibrils (Homo sapiens (Human), UniProt P05067). Nature of the data set: [N-methyl-11C]BTA-1 binding assay with Aβ(1-40) fibrils.
Aβ(1-40) fibrils, sequence (P05067 672-711): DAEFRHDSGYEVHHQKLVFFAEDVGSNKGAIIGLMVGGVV
Data set [3] deals with plaques and tangles in post-mortem AD brain. Nature of the data set: Preliminary tissue staining of post-mortem AD brain with ThT and derivatives. Type of data set: binding, human. Conditions: for staining of plaques and tangles in AD brain: post-mortem AD brain, fluorescence; for staining detectable at low concentration of staining solution: staining solutions containing only 10 nM of the BTA compound. The text has this:
Thus, in the development of these compounds, tissue staining has served the dual purpose of assessing specificity of staining in AD brain tissue as well as assessing binding affinity by screening staining solutions over a range of concentrations similar to that employed in the binding assays.

The target in data set [4] is Aβ amyloid plaques and cerebrovascular amyloid (Homo sapiens (Human), UniProt P05067). Nature of the data set: In vivo labeling of amyloid deposits in PS1/APP transgenic mice, multiphoton microscopy. Set-up: species or system mouse. Conditions: 10 mg/kg ip, imaged 24 hours later, living PS1/APP mice. The source says:
Twenty-four hours later, multiphoton fluorescence microscopy was employed to obtain high resolution images in the brains of living mice using a cranial window technique.

For data set [5], the system named is amyloid deposits in postmortem AD brain. The data set is described as follows: Staining of postmortem AD brain tissue sections with unlabeled BTA-1. Format: binding, human.
Data set [6] concerns Aβ and tau deposits in brain homogenates. Nature of the data set: [3H]BTA-1 binding to brain homogenates (AD brain and Braak stage II control brain). More on the design: species or system human. The text has this: This control brain had frequent numbers of NFT in the entorhinal cortex (FIG. 5A), but no neuritic or diffuse plaques in any area of the brain (FIG. 11C). The NFT numbers in the EC of Cntl 04 were similar to the numbers found in many AD cases (FIG. 11B).

The target of data set [7] is amyloid deposits in PS1/APP mouse brain (Homo sapiens (Human), UniProt P05067). The data set is described as follows: Staining of transgenic PS1/APP mouse brain sections with unlabeled BTA-1. Format: binding. The source says: The PS1/APP mouse model combines two human gene mutations known to cause Alzheimer's disease in a doubly transgenic mouse which deposits Aβ fibrils in amyloid plaques in the brain beginning as early as 3 months of age. […] NFT have not been observed in transgenic mouse models of amyloid deposition.
amyloid deposits in PS1/APP mouse brain, sequence (P05067 672-713): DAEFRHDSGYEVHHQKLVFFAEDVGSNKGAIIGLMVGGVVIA

Data set [8] is described as follows: In vivo PET brain imaging in baboons. Conditions: normal baboon brain, 5-15 min post injection, 3 mCi i.v. Here is the method: Brain imaging studies were conducted following the intravenous injection of 3-5 mCi of radiotracer. Typical attenuation- and decay-corrected time-activity curves for a frontal cortex region of interest for each of the three compounds are shown in FIG. 6. It is noted that the absolute brain uptake of these 3 compounds in baboons is very similar to that in mice (i.e., about 0.47 to 0.39%ID/g*kg). […] The rank order of maximum brain uptake and clearance rate of the three compounds were also the same in mice and baboons. […] Typical amounts of unmetabolized injectate in plasma for all three compounds were about: 90% at 2 minutes; 35% at 30 minutes; and 20% at 60 minutes.
The emission files collected 5-15 min post injection were summed to provide the images. Brain regions include: Ctx (cortex); Thl (thalamus); Occ (occipital cortex); and Cer (cerebellum).

A further data set deals with synthetic Aβ(1-40) (Homo sapiens (Human), UniProt P05067). The data set is described as follows: Competitive binding with [3H]CG and synthetic Aβ(1-40).
synthetic Aβ(1-40), sequence (P05067 672-711): as the sequence (P05067 672-711) above
[9] abbreviates: Table 1, upper part, read-out: Ki (nM) to Aβ fibrils.
Where [10] appears, read: Table 1, lower part, read-out: Ki.
[11] abbreviates: competition for Aβ sites, FIG. 5 right panel, read-out: Ki.

“Also recorded” adds a separate entry of the source. Where two headings read alike, the source gives them in different places.

Aβ amyloid plaques and cerebrovascular amyloid, sequence (P05067 672-713): as the sequence (P05067 672-713) above

Turning to `Cc1ccc2nc(-c3ccc(N[11CH3])cc3)sc2c1`, in data set [1], the “Mouse Brain Uptake @ 2 min” value came to 0.32 ± 0.07 % ID/g * kg and the “Mouse Brain Uptake @ 30 min” value was determined as 0.17 ± 0.05 % ID/g * kg. For the same compound, the log partition coefficient (logP) (as a rule, the decadic logarithm of the partition coefficient of the neutral form, usually between octanol and water) in data set [2] worked out at 3.3.

In the case of `Cc1ccc2nc(-c3ccc(N(C)[11CH3])cc3)sc2c1`, in data set [1], the “Mouse Brain Uptake @ 2 min” value turned out to be 0.15 ± 0.06 % ID/g * kg and the “Mouse Brain Uptake @ 30 min” value stood at 0.16 ± 0.02 % ID/g * kg. In [1] (mouse brain), the “Ratio of 2 min/30 min Uptake Values” was 0.9. In “physchem”, the logP amounted to 3.9.

Turning to `COc1ccc2nc(-c3ccc(N[11CH3])cc3)sc2c1`, in data set [1], the “Mouse Brain Uptake @ 2 min” value was found to be 0.43 ± 0.11 % ID/g * kg and the “Mouse Brain Uptake @ 30 min” value is listed as 0.094 ± 0.038 % ID/g * kg. Moreover, the “Ratio of 2 min/30 min Uptake Values” in data set [1] (mouse brain) was found to be 4.6. This compound also returned a logP in the data set “physchem” of 2.7. In addition, at Aβ(1-40) fibrils (setting [9]), the Ki – broadly, a dissociation constant, usually derived from enzyme kinetics or from competition with a known ligand – was determined as 5.7 nM.

In the case of `COc1ccc2nc(-c3ccc(N(C)[11CH3])cc3)sc2c1`, in [1], the “Mouse Brain Uptake @ 2 min” value is reported as 0.32 ± 0.09 % ID/g * kg and the “Mouse Brain Uptake @ 30 min” value is listed as 0.42 ± 0.10 % ID/g * kg. In addition, the “Ratio of 2 min/30 min Uptake Values” in [1] (mouse brain) came to 0.8. Further, in “physchem”, the logP is 3.3. Also, the Ki at Aβ(1-40) fibrils (setting [9]) was found to be 2.3 nM.

In the case of `[11CH3]Nc1ccc(-c2nc3ccccc3s2)cc1`, in data set [1], the “Mouse Brain Uptake @ 2 min” value is given as 0.44 ± 0.14 % ID/g * kg and the “Mouse Brain Uptake @ 30 min” value was found to be 0.057 ± 0.010 % ID/g * kg. Moreover, the logP in the data set “physchem” was found to be 2.7.

As for `Nc1ccc(-c2nc3ccccc3s2)cc1[125I]`, the “2:30 min ratio” value in [1] (Table 1, lower part) is listed as 2.7. For the same compound, in [1], the “2 min (% ID/g)” value amounted to 9.08 % ID/g and the “30 min (% ID/g)” value stood at 3.4 % ID/g. Also, the logP in the data set “physchem” stood at 3.17. Also, the Ki at Aβ(1-40) fibrils (setting [10]) turned out to be 8.32 nM.

In the case of `Nc1ccc(-c2nc3ccc(O)cc3s2)cc1[125I]`, in [1], the “2 min (% ID/g)” value is 5.64 % ID/g and the “30 min (% ID/g)” value turned out to be 0.36 % ID/g. The compound further yielded a log partition coefficient (logP) in “physchem” of 1.65. Besides, the inhibitory constant (Ki) at Aβ(1-40) fibrils (setting [10]) turned out to be 11.1 nM.

For `Cc1ccc2nc(-c3ccc(N)cc3)sc2c1` [6-Me-BTA-0, 2-(4′-aminophenyl)-6-methyl-benzothiazole], in [3], the “staining of plaques and tangles in AD brain” value (shortened to “staining … in AD brain”) was “stain plaques and tangles”; the “staining detectable at low concentration of staining solution” value is listed as “could still be detected”.

Turning to `CNc1ccc(-c2nc3ccc(C)cc3s2)cc1` [6-Me-BTA-1], in data set [3], the “staining detectable at low concentration of staining solution” value was “could still be detected”.

As to `Cc1ccc2nc(-c3ccc(N(C)C)cc3)sc2c1` [6-Me-BTA-2, 2-(4′-dimethylaminophenyl)-6-methyl-benzothiazole], in data set [3], the “staining … in AD brain” value is “stain plaques and tangles”.

Regarding `COc1ccc2nc(-c3ccc(N)cc3)sc2c1` [6-MeO-BTA-0, 6-Methoxy-2-(4-aminophenyl)benzothiazole], in [1] (mouse brain), the brain clearance entry is reported as “poor brain clearance”.

With `Nc1ccc(-c2nc3ccccc3s2)cc1` [BTA-0, 2-(4-Aminophenyl)benzothiazole], on Aβ(1-40) fibrils (setting [11]), the Ki was 100 ± 16 nM.

Take `CNc1ccc(-c2nc3ccccc3s2)cc1` [BTA-1, 2-(4-Methylaminophenyl)benzothiazole]: in [4], the “in vivo labeling of plaques and cerebrovascular amyloid” value is “plaques and cerebrovascular amyloid are clearly distinguishable”. For the same compound, the “staining of neurofibrillary tangles (NFT)” value in data set [5] (AD brain, FIG. 8, left) is given as “more faintly stained”. For the same compound, the “staining of amyloid plaques” value in data set [5] (postmortem AD brain tissue) and in data set [7] (8 month old PS1/APP mouse brain tissue) was “clearly visible” throughout. In data set [6] (Braak VI AD brain), the “binding in cerebellum and entorhinal cortex” value is given as “low binding”. Besides, in [6] (Braak VI AD brain), the “binding in frontal gray versus cerebellum and entorhinal cortex” value is given as “over ten-fold higher levels”. Moreover, the “binding in NFT-rich entorhinal cortex versus cerebellum and frontal gray” value in data set [6] (Braak stage II control brain (Cntl 04)) is reported as “no greater than”. In data set [7] (FIG. 8, right), the “staining of cerebrovascular amyloid” value was “brightly stained”. For the same compound, the specific binding at Aβ(1-40) fibrils (200 nM Aβ(1-40) fibrils) is around 70%. Besides, the “distribution of radioactivity in brain (PET)” value in data set [8] is listed as “uniform distribution of radioactivity throughout the brain”.

`CN(C)c1ccc(-c2nc3ccccc3s2)cc1` [BTA-2, 2-(4-dimethylaminophenyl)benzothiazole]: the Ki at Aβ(1-40) fibrils (setting [11]) came out at 3 ± 0.8 nM.

Turning to `c1ccc(-c2nc3ccccc3s2)cc1` [BTP, 2-phenylbenzothiazole, reference compound], the “staining … in AD brain” value in [3] is recorded as “does not appear to stain plaques”.

Take `Cc1ccc2c(c1)sc(-c1ccc(N(C)C)cc1)[n+]2C.[Cl-]` [ThT, Thioflavin T, reference compound]: the “staining … in AD brain” value in data set [3] is “weakly stains plaques”. Besides, the “competition with [3H]CG for binding sites on Aβ(1-40)” value on synthetic Aβ(1-40) is given as “lack of competition; also recorded: did not”. Also, the “log of the partition coefficient, logPoct” value in [2] (octanol / phosphate-buffered saline) is reported as 0.57.

Regarding Thioflavin S [ThS], the “competition with [3H]CG for binding sites on Aβ(1-40)” value at synthetic Aβ(1-40) is recorded as “competed”.
